{
  "source": "patent USRE39352E1",
  "about": "“Creatine amidinohydrolase, production thereof and use thereof” (Toyo Boseki Kabushiki Kaisha, priority 1996, dated 2006)",
  "key": {"[1]": {"tested_on": "creatine amidinohydrolase derived from bacteria belonging to the genus Actinobacillus", "settings": "Japanese Patent Examined Publication No. 76915/1991; cited from earlier work"}, "[2]": {"tested_on": "Pseudomonas putida creatine amidinohydrolase", "settings": "residual creatine determined with α-naphthol and diacetyl; Archives Biochemistry and Biophysics 177, 508-515 (1976); read-out: apparent Km value for creatine; cited from earlier work"}, "[3]": {"tested_on": "Alcaligenes faecalis TE3581 creatine amidinohydrolase mutant pCRH273M3 (FERM BP-5376), purified from Escherichia coli JM109 (pCRH273M3)", "experiment": "Km value for creatine, coupling assay using sarcosine oxidase and peroxidase (mutant pCRH273M3)", "format": "biochemical", "settings": "coupling assay with sarcosine oxidase and peroxidase, pH 7.6, 37° C."}, "[4]": {"tested_on": "creatine amidinohydrolase derived from bacteria belonging to the genus Corynebacterium", "settings": "Japanese Patent Examined Publication No. 76915/1991; cited from earlier work"}, "[5]": {"tested_on": "Alcaligenes faecalis TE3581 creatine amidinohydrolase mutant pCRH273M1 (FERM BP-5374), purified from Escherichia coli JM109 (pCRH273M1)", "experiment": "Km value for creatine, coupling assay using sarcosine oxidase and peroxidase (mutant pCRH273M1)", "format": "biochemical", "settings": "coupling assay with sarcosine oxidase and peroxidase, pH 7.6, 37° C."}, "[6]": {"tested_on": "Alcaligenes faecalis TE3581 (FERM P-14237) creatine amidinohydrolase, wild, SEQ ID NO: 1 (gene SEQ ID NO: 2)", "experiment": "Km value for creatine, coupling assay using sarcosine oxidase and peroxidase (wild enzyme)", "format": "biochemical", "settings": "coupling assay with sarcosine oxidase and peroxidase, pH 7.6, 37° C.", "description": "While the gene encoding a wild creatine amidinohydrolase which is to be mutated is not particularly limited, in one embodiment of the present invention, it is the creatine amidinohydrolase gene depicted in the Sequence Listing•SEQ ID:No.2, which is derived from Alcaligenes•faecalis TE3581 (FERM P-14237).\nIn another embodiment of the present invention, a novel creatine amidinohydrolase having a smaller Km value for creatine than a wild creatine amidinohydrolase is produced by mutating the gene encoding the amino acid sequence depicted in the Sequence Listing•SEQ ID No:1. […]\nIn the Examples, the activity of creatine amidinohydrolase was determined as follows. […]\nThe above-mentioned reaction mixture (3 ml) is taken with a cuvette (d=1 cm) and preliminarily heated to 37° C. for about 3 minutes. […] Using water as a control, changes in absorbance at 500 nm are recorded for 5 minutes using a spectrophotometer controlled to 37° C. Based on the linear portion of 2-5 minutes thereof, changes in absorbance per minute are determined (ΔOD) test.\nThe blank test is performed in the same manner as above except that a solution (0.1 ml, 50 mM potassium phosphate buffer, pH 7.5) for diluting the enzyme is used instead of the enzyme solution and changes in absorbance per minute are determined (ΔOD blank).\nThe enzyme amount is calculated by inserting each measure into the following formula. […]"}, "[7]": {"tested_on": "creatine amidinohydrolase derived from bacteria belonging to the genus Bacillus", "settings": "Japanese Patent Examined Publication No. 76915/1991; cited from earlier work"}, "[8]": {"tested_on": "creatine amidinohydrolase derived from bacteria belonging to the genus Micrococcus", "settings": "Japanese Patent Examined Publication No. 76915/1991; cited from earlier work"}, "[9]": {"tested_on": "Alcaligenes faecalis TE3581 creatine amidinohydrolase mutant pCRH273M2 (FERM BP-5375), purified from Escherichia coli JM109 (pCRH273M2)", "experiment": "Km value for creatine, coupling assay using sarcosine oxidase and peroxidase (mutant pCRH273M2)", "format": "biochemical", "settings": "coupling assay with sarcosine oxidase and peroxidase, pH 7.6, 37° C."}, "[10]": {"tested_on": "creatine amidinohydrolase produced by bacteria belonging to the genus Alcaligenes (Japanese Patent Unexamined Publication No. 63363/1994)", "settings": "cited from earlier work"}},
  "note": "Values joined by “and” are separate entries in the source; they are usually repeats but may differ in a detail not shown here. Equal entries are not always repeated.",
  "data": [
    {"smiles": "CN(CC(=O)O)C(=N)N", "note": "[creatine]", "values": [
      {"measurement": "Km", "setting": "[1]", "value": "~20", "unit": "mM"},
      {"measurement": "Km", "setting": "[2]", "value": 1.33, "unit": "mM"},
      {"measurement": "Km", "setting": "[3]", "value": "~9 mM and 9 mM"},
      {"measurement": "Km", "setting": "[4]", "value": "~20", "unit": "mM"},
      {"measurement": "Km", "setting": "[5]", "value": "~6.5 mM and 6.5 mM"},
      {"measurement": "Km", "setting": "[6]", "value": 15.2, "unit": "mM"},
      {"measurement": "Km", "setting": "[7]", "value": "~20", "unit": "mM"},
      {"measurement": "Km", "setting": "[8]", "value": "~20", "unit": "mM"},
      {"measurement": "Km", "setting": "[9]", "value": "~4.5 mM and 4.5 mM"},
      {"measurement": "Km", "setting": "[10]", "value": "~15.2", "unit": "mM"}
    ]}
  ]
}
